Usually EC50 stands for the midpoint of the concentration-response curve. A higher EC50 goes with weaker potency. One may read the melting point as the temperature of the solid-liquid transition.

From US8957070B2, “Glucokinase activator compounds, methods of activating glucokinase and methods of treating diabetes and obesity” (Takeda Pharmaceutical Company Limited, priority 2005, dated 2015) come the findings set out here.

SMILES strings stand for the structures.

For the first series, the target named is T1, GST-hLGK1 (human liver type GK) (Homo sapiens, UniProt P35557).
T1 construct: with a BamHI site added to immediately before the initiation codon; made in house; host or cells: Escherichia coli BL21
T1 sequence (P35557 1-464 isoform P35557-3): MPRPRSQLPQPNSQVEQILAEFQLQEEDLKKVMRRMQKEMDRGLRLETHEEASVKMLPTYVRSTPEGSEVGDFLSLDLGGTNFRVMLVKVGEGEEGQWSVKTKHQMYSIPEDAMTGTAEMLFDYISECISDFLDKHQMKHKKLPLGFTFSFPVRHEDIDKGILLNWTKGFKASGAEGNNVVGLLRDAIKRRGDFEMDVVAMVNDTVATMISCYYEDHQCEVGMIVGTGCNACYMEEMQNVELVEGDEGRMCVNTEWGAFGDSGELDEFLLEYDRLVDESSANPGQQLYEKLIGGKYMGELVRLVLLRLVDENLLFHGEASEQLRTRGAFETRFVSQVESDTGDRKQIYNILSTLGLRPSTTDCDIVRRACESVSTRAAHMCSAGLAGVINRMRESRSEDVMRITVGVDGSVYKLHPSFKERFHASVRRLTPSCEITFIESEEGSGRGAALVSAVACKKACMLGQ
The series is described as follows: Determination of GK activity value (Mant-ATP conversion, capillary electrophoresis). The class given is biochemical. To be noted: concentration necessary for activating 50% of the maximum GK activity value, 37° C., 60 min, D-glucose added. The protocol:
A solution (5 μL) of test compound in 50% dimethyl sulfoxide was added to each well of 384 well black plate (Nalge Nunc International K.K.). Then, a solution (35 μL) obtained by diluting GST-hLGK1 obtained in Reference Example 2A with measurement buffer (containing 50 mM HEPES (pH 7.4), 200 mM KCl, 5 mM MgCl2, 2.5 mM DTT and 50 μM 2′-(or -3′)-O—(N-methylanthraniloyl)adenosine 5′-triphosphate (Mant-ATP) (Jena Bioscience GmbH)) to 6 μg/mL was added to each well.
Each well was stood at 37° C. for 10 min, and 25 mM D-glucose solution (10 μL) was added to start the reaction.
Each well after the reaction was stood at 37° C. for 60 min, and the reaction was quenched by adding 25 μL of a quenching solution (containing 200 mM HEPES (pH 7.4), 20 mM MgCl2, 200 mM EDTA, 0.03% Triton-X 100, 0.3% Coating 3 reagent (Caliper Life Sciences, Inc.)).
Mant-ATP (substrate) and Mant-ADP (reaction resultant product) were separated from each well after the reaction by a microchip type capillary electrophoresis apparatus 250 HTS (Caliper Life Sciences, Inc.). The reaction rate [(reaction resultant product peak height)/(reaction resultant product peak height+substrate peak height)×100(%)] was calculated from the ratio of the substrate peak height and reaction resultant product peak height obtained by fluorescence detection (excitation wavelength 355 nm, measurement wavelength 460 nm) and used as the index of GK activity.
As a control group, the reaction rate was calculated in the same manner as above except that “solution in 50% dimethyl sulfoxide” was used instead of “solution of test compound in 50% dimethyl sulfoxide”.
The percentage obtained by dividing the reaction rate of the well added with the test compound (test compound addition group) by the reaction rate of the well added with 50% solution in dimethyl sulfoxide alone (control group) was taken as the GK activity value of the test compound, and the concentration of the test compound necessary for activating 50% of the maximum value of the activity value is shown as EC50 value.
On to `CN(c1cccc2cc(-c3nccs3)[nH]c12)S(=O)(=O)c1nccn1C` [Example 209, N,1-Dimethyl-N-[2-(1,3-thiazol-2-yl)-1H-indol-7-yl]-1H-imidazole-2-sulfonamide], for which the EC50 came out at 0.51 µM.
The same measure, in the same setting: then `Cc1cc(NS(=O)(=O)c2cccs2)c2[nH]c3c(c2c1)CCNC3=O` [Example 52, N-(6-Methyl-1-oxo-2,3,4,9-tetrahydro-1H-β-carbolin-8-yl)thiophene-2-sulfonamide], with 2 µM.
The same measure, in the same setting: in the case of `CN(c1cc(OC(F)(F)F)cc2cc(C3=NCCS3)[nH]c12)S(=O)(=O)c1cccs1` [Example 169, N-[2-(4,5-dihydro-1,3-thiazol-2-yl)-5-(trifluoromethoxy)-1H-indol-7-yl]-N-methylthiophene-2-sulfonamide] it was 0.022 µM; in that of `CN(c1cccc2cc(-c3nccs3)[nH]c12)S(=O)(=O)c1cccs1` [Example 97, N-Methyl-N-[2-(1,3-thiazol-2-yl)-1H-indol-7-yl]thiophene-2-sulfonamide], 0.077 µM; in that of `CN(c1ccc(Cl)c2cc(-c3ncc(CO)s3)[nH]c12)S(=O)(=O)c1cccs1` [Example 261, N-{4-chloro-2-[5-(hydroxymethyl)-1,3-thiazol-2-yl]-1H-indol-7-yl}-N-methylthiophene-2-sulfonamide], 0.019 µM.
On the same count and under the same terms, then `O=S(=O)(Nc1cccc2cc(-c3ncon3)[nH]c12)c1cccs1` [Example 17, N-[2-(1,2,4-Oxadiazol-3-yl)-1H-indol-7-yl]thiophene-2-sulfonamide], with 4.8 µM; and `O=S(=O)(Nc1cccc2cc(C3=NCCS3)[nH]c12)c1cccs1` [Example 3, N-[2-(4,5-dihydro-1,3-thiazol-2-yl)-1H-indol-7-yl]thiophene-2-sulfonamide], with 0.11 µM; and `CCOC(=O)c1[nH]c2c(NS(=O)(=O)c3cccs3)cccc2c1C` [Example 23, Ethyl 3-methyl-7-[(2-thienylsulfonyl)amino]-1H-indole-2-carboxylate], with 2.7 µM.
In the case of `O=S(=O)(Nc1cccc2cc(-c3nccs3)[nH]c12)c1cccs1` [Example 7, N-[2-(1,3-Thiazol-2-yl)-1H-indol-7-yl]thiophene-2-sulfonamide], the concentration for a half-maximal effect (EC50) worked out at 0.24 µM.
Still for that read-out and setting: in the case of `CCN(c1cccc2cc(C3=NCCS3)[nH]c12)S(=O)(=O)c1cccs1` [Example 104, N-[2-(4,5-Dihydro-1,3-thiazol-2-yl)-1H-indol-7-yl]-N-ethylthiophene-2-sulfonamide] it was 0.034 µM; in that of `Cc1c(C2=NCCS2)[nH]c2c(NS(=O)(=O)c3cccs3)cccc12` [Example 26, N-[2-(4,5-Dihydro-1,3-thiazol-2-yl)-3-methyl-1H-indol-7-yl]thiophene-2-sulfonamide], 1.7 µM; in that of `CCN(c1cccc2cc(-c3ncc(COc4ccc(C(=O)O)cc4)s3)[nH]c12)S(=O)(=O)c1cccs1` [Example 280, 4-[(2-{7-[ethyl(2-thienylsulfonyl)amino]-1H-indol-2-yl}-1,3-thiazol-5-yl)methoxy]benzoic acid], 0.035 µM.
The compound `CCOC(=O)Cc1cnc(-c2cc3cccc(N(C)S(=O)(=O)c4cccs4)c3[nH]2)s1` [Example 137, Ethyl (2-{7-[methyl(2-thienylsulfonyl)amino]-1H-indol-2-yl}-1,3-thiazol-5-yl)acetate] showed an EC50 of 0.048 µM. The EC50 values of the last two compounds are within 1.5-fold of each other.
`O=C1CCCc2c1[nH]c1c(NS(=O)(=O)c3cccs3)cccc21` [Example 11, N-(1-Oxo-2,3,4,9-tetrahydro-1H-carbazol-8-yl) thiophene-2-sulfonamide]: the EC50 was found to be 1.4 µM.
The compound `CN(c1cccc2cc(-c3ncc(CN4CCOCC4)s3)[nH]c12)S(=O)(=O)c1cccs1` [Example 146, N-Methyl-N-{2-[5-(morpholin-4-ylmethyl)-1,3-thiazol-2-yl]-1H-indol-7-yl}thiophene-2-sulfonamide] gave an EC50 of 0.18 µM. This EC50 lies about 7.8-fold lower than the previous one.
Regarding `CN(c1cccc2cc(C3=NCCS3)[nH]c12)S(=O)(=O)c1cccs1` [Example 86, N-[2-(4,5-Dihydro-1,3-thiazol-2-yl)-1H-indol-7-yl]-N-methylthiophene-2-sulfonamide], the midpoint of the response, the EC50, lay at 0.027 µM.
The same measure, in the same setting: in the case of `O=S(=O)(Nc1cccc2cc(-c3ccccn3)[nH]c12)c1cccs1` [Example 8, N-[2-(Pyridin-2-yl)-1H-indol-7-yl]thiophene-2-sulfonamide] it was 1.5 µM.
In turn, `CCCSc1ccc(NS(=O)(=O)c2cccs2)c2[nH]c(C(=O)OCC)cc12` [Example 65, Ethyl 4-(propylthio)-7-[(2-thienylsulfonyl)amino]-1H-indole-2-carboxylate] yielded a concentration for a half-maximal effect (EC50) of 0.39 µM.
`CN(c1cc(F)cc2cc(C3=NCCS3)[nH]c12)S(=O)(=O)c1cccs1` [Example 165, N-[2-(4,5-dihydro-1,3-thiazol-2-yl)-5-fluoro-1H-indol-7-yl]-N-methylthiophene-2-sulfonamide] displayed an EC50 of 0.028 µM. Compared with the last compound, the EC50 is about 14-fold lower.
As for `CN(c1cccc2cc(-c3ncc(CCC#N)s3)[nH]c12)S(=O)(=O)c1cccs1` [Example 151, N-{2-[5-(2-Cyanoethyl)-1,3-thiazol-2-yl]-1H-indol-7-yl}-N-methylthiophene-2-sulfonamide], the EC50 was 0.08 µM.
In the case of `O=S(=O)(Nc1cccc2cc(C3=NCCO3)[nH]c12)c1cccs1` [Example 5, N-[2-(4,5-Dihydro-1,3-oxazol-2-yl)-1H-indol-7-yl]thiophene-2-sulfonamide], the half-maximal effective concentration (EC50) was 1.2 µM. This EC50 lies about 15-fold higher than the previous one.

Test system in a further series: not given
Assay: not given
Conditions: not given
As to `CCN(c1ccc(C)c2cc(-c3ncc(CO)s3)[nH]c12)S(=O)(=O)c1cccs1` [Example 250, N-Ethyl-N-{2-[5-(hydroxymethyl)-1,3-thiazol-2-yl]-4-methyl-1H-indol-7-yl}thiophene-2-sulfonamide], the melting point lay in the range of 166 to 167 °C.
`CCOC(=O)c1cc2c(C)ccc(N(CC)S(=O)(=O)c3cccs3)c2[nH]1` [Example 246, Ethyl 7-[ethyl(2-thienylsulfonyl)amino]-4-methyl-1H-indole-2-carboxylate] had a melting point of 148 to 149 °C.
On the same count and under the same terms, then `CN(c1cc(OC(F)(F)F)cc2cc(C(=O)O)[nH]c12)S(=O)(=O)c1cccs1` [Example 167, 7-[Methyl(2-thienylsulfonyl)amino]-5-(trifluoromethoxy)-1H-indole-2-carboxylic acid], with 245 to 246 °C.
`CCN(c1ccc(C)c2cc(-c3ncc(C(C)O)s3)[nH]c12)S(=O)(=O)c1cccs1` (stereo not drawn) [Example 249, N-Ethyl-N-{2-[5-(1-hydroxyethyl)-1,3-thiazol-2-yl]-4-methyl-1H-indol-7-yl}thiophene-2-sulfonamide] showed a melting point of 152 to 153 °C.
Still for that read-out and setting: in the case of `Cc1ccc(N(C)S(=O)(=O)c2cccs2)c2[nH]c(-c3nccs3)cc12` [Example 177, N-Methyl-N-[4-methyl-2-(1,3-thiazol-2-yl)-1H-indol-7-yl]thiophene-2-sulfonamide] it was 159 to 160 °C.
`Cc1nc(-c2cc3cccc(N(C)S(=O)(=O)c4cccs4)c3[nH]2)cs1` [Example 173, N-Methyl-N-[2-(2-methyl-1,3-thiazol-4-yl)-1H-indol-7-yl]thiophene-2-sulfonamide] gave a melting point of 161 to 162 °C.
Same read-out and setting: then `Cc1ccc(N(C)S(=O)(=O)c2cccs2)c2[nH]c(C(=O)O)cc12` [Example 175, 4-Methyl-7-[methyl (2-thienylsulfonyl)amino]-1H-indole-2-carboxylic acid], with 223 to 225 °C; and `Cc1ccc(N(C)S(=O)(=O)c2cccs2)c2[nH]c(-c3ncc(CO)s3)cc12` [Example 245, N-{2-[5-(Hydroxymethyl)-1,3-thiazol-2-yl]-4-methyl-1H-indol-7-yl}-N-methylthiophene-2-sulfonamide], with 184 to 185 °C; and `CCOC(=O)c1cc2c(C)c(C)cc(N(CC)S(=O)(=O)c3cccs3)c2[nH]1` [Example 251, Ethyl 7-[ethyl(2-thienylsulfonyl)amino]-4,5-dimethyl-1H-indole-2-carboxylate], with 134 to 135 °C.
